Counter-ions that a name gives are not always drawn.
Target: CB1-receptor (UniProt P20272)
Experiment: In-vitro determination of affinity (binding) to CB1-receptors, radioligand [3H]-CP55940
Parameters: % inh; 10^−7 M; compound at 10^−7 M; species or system human or rat
Details: compound at 10^−7 M
Description: (§1) I. In-Vitro Determination of Affinity to CB1/CB2-Receptors
(§2) The in-vitro determination of the affinity of the inventive substituted pyrazoline compounds to CB1/CB2-Rezeptors is carried out as described in the publication of Ruth A. Ross, Heather C. Brockie et al., “Agonist-inverse agonist characterisation at CB1 and CB2 cannabinoid receptors of L-759633, L759656 and AM630”, British Journal of Pharmacology, 126, 665-672, (1999), whereby the transfected human CB1 and CB2 receptors of Receptor Biology, Inc. are used. The radioligand used for both receptors is [^3H]-CP55940. The respective parts of the description is hereby incorporated by reference and forms part of the present disclosure.
(§3) Rat Cerebellum CB1 Binding
(§4) Binding affinity to CB1 receptor was evaluated according to a modification of the method described by Govaerts et al., Eur J Pharmac Sci 23, 233-243 (2004). The respective parts of the description is hereby incorporated by reference and forms part of the present disclosure.
(§5) Briefly, cerebellum from male wistar rats (250-300 g) were carefully dissected on ice and homogenates were prepared with Potter-Helveheim in a cold 50 mM Tris-HCl solution containing 5 mM MgCl2, 1 mM EDTA and 0.25 M sucrose, pH 7.4. The suspension was centrifuged at 1,000×g for 5 minutes. The supernatants were collected and centrifuged 50,000×g for 15 minutes. The resulting pellets were then resuspended in Tris-HCl buffer without sucrose, homogenised and incubated for 15 min at 37° C. in an orbital shaker bath and centrifuged again at 50,000×g for 15 min. Pellets were weighted, resuspended in Tris-HCl buffer without sucrose, homogenised with Ultraturrax at 13,500 rpm for 3×5 seconds and alicuoted in 0.9 ml volumes in Eppendorf tubes. Alicuotes were centrifuged at 20,800×g for 5 minutes, supernatants discarded and pellets were frozen at −80° C. until use. Total protein concentration was determined using the Bio-Rad Lowry method based kit. Competitive binding experiments were performed in presence of 1 nM [^3H]-CP 55,940 in siliconised glass tubes containing 100 μg protein/tube resuspended in 1 ml final volume of 50 mM Tris-HCl, 5 mM MgCl2, 1 mM EDTA, 0.5% (w/v) bovine serum albumin, pH 7.4. Compounds were present at various concentrations and the non specific binding was determined in the presence of 10 μM HU-210. After 1 hour incubation at 30° C., the suspension was rapidly filtered through 0.5% PEI pre-treated GF/B fiber filters on a 96-well harvester and washed 3 times with 3 ml ice-cold binding buffer without bovine serum albumin. Radioactivity on filters was measured with Wallac Winspectral 1414 counter by liquid scintillation in 6 ml Ecoscint H (National Diagnostics, U.K.). Assays were made in triplicates.
(§6) Binding data were analysed by non-linear regression with the software GraphPad Prism Version 3.03.
(§7) The binding of the pyrazoline compounds of general formulae I, Ia and Ib to CB1-receptors was determined according to the method described in the section Pharmacological Methods, Part I.

Point of comparison: `O=S(=O)(CC1CCCCC1)NCC1=NN(c2ccc(Cl)cc2Cl)C(c2ccc(Cl)cc2)C1` (stereo not drawn) [Example 31, N-[5-(4-Chloro-phenyl)-1-(2,4-dichloro-phenyl)-4,5-dihydro-1H-pyrazol-3-ylmethyl]-C-cyclohexyl-methanesulfonamide], “% inh. 10^−7 M” value 15.9%. Against it:
- O=S(=O)(NCC1=NN(c2ccc(Cl)cc2Cl)C(c2ccc(Cl)cc2)C1)c1ccccc1Cl (stereo not drawn) [Example 23, 2-Chloro-N-[5-(4-chloro-phenyl)-1-(2,4-dichloro-phenyl)-4,5-dihydro-1H-pyrazol-3-ylmethyl]-benzenesulfonamide] — higher, 54.9%
- O=S(=O)(NCC1=NN(c2ccc(Cl)cc2Cl)C(c2ccc(Cl)cc2)C1)c1ccc(OC(F)(F)F)cc1 (stereo not drawn) [Example 16, N-[5-(4-Chloro-phenyl)-1-(2,4-dichloro-phenyl)-4,5-dihydro-1H-pyrazol-3-ylmethyl]-4-trifluoromethoxy-benzenesulfonamide] — higher, 88.0%
- N#Cc1cccc(S(=O)(=O)NCC2=NN(c3ccc(Cl)cc3Cl)C(c3ccc(Cl)cc3)C2)c1 (stereo not drawn) [Example 10, N-((5-(4-chlorophenyl)-1-(2,4-dichlorophenyl)-4,5-dihydro-1H-pyrazol-3-yl)methyl)-3-cyanobenzenesulfonamid] — higher, 48.6%
- CC(=O)Nc1ccc(S(=O)(=O)NCC2=NN(c3ccc(Cl)cc3Cl)C(c3ccc(Cl)cc3)C2)cc1Cl (stereo not drawn) [Example 41, N-(2-Chloro-4-{[5-(4-chloro-phenyl)-1-(2,4-dichloro-phenyl)-4,5-dihydro-1H-pyrazol-3-ylmethyl]-sulfamoyl}-phenyl)-acetamide] — lower, 8.2%
- Cc1ccc(F)cc1S(=O)(=O)NCC1=NN(c2ccc(Cl)cc2Cl)C(c2ccc(Cl)cc2)C1 (stereo not drawn) [Example 38, N-[5-(4-Chloro-phenyl)-1-(2,4-dichloro-phenyl)-4,5-dihydro-1H-pyrazol-3-ylmethyl]-5-fluoro-2-methyl-benzenesulfonamide] — higher, 74.0%
- O=S(=O)(NCC1=NN(c2ccc(Cl)cc2Cl)C(c2ccc(Cl)cc2)C1)c1csc2ccccc12 (stereo not drawn) [Example 37, Benzo[b]thiophene-3-sulfonic acid [5-(4-chloro-phenyl)-1-(2,4-dichloro-phenyl)-4,5-dihydro-1H-pyrazol-3-ylmethyl]-amide] — higher, 27.2%
- CCc1ccc(S(=O)(=O)NCC2=NN(c3ccc(Cl)cc3Cl)C(c3ccc(Cl)cc3)C2)cc1 (stereo not drawn) [Example 43, N-[5-(4-Chloro-phenyl)-1-(2,4-dichloro-phenyl)-4,5-dihydro-1H-pyrazol-3-ylmethyl]-4-ethyl-benzenesulfonamide] — higher, 26.7%
- CCCCS(=O)(=O)NCC1=NN(c2ccc(Cl)cc2Cl)C(c2ccc(Cl)cc2)C1 (stereo not drawn) [Example 20, Butane-1-sulfonic acid [5-(4-chloro-phenyl)-1-(2,4-dichloro-phenyl)-4,5-dihydro-1H-pyrazol-3-ylmethyl]-amide] — higher, 27.2%
- COc1cc(C)ccc1S(=O)(=O)NCC1=NN(c2ccc(Cl)cc2Cl)C(c2ccc(Cl)cc2)C1 (stereo not drawn) [Example 36, N-[5-(4-Chloro-phenyl)-1-(2,4-dichloro-phenyl)-4,5-dihydro-1H-pyrazol-3-ylmethyl]-2-methoxy-4-methyl-benzenesulfonamide] — higher, 26.5%
- COC(=O)CCc1ccc(S(=O)(=O)NCC2=NN(c3ccc(Cl)cc3Cl)C(c3ccc(Cl)cc3)C2)cc1 (stereo not drawn) [Example 35, 3-(4-{[5-(4-Chloro-phenyl)-1-(2,4-dichloro-phenyl)-4,5-dihydro-1H-pyrazol-3-ylmethyl]-sulfamoyl}-phenyl)-propionic acid methyl ester] — lower, 8.5%

Target: CB1-receptor (UniProt P20272)
Experiment: as above
Parameters: IC50; Ki; species or system human or rat
Details: Pharmacological Methods Part I
Description: as §1, §2, §3, §4, §5, §6, §7

Point of comparison: `O=S(=O)(NCC1=NN(c2ccc(Cl)cc2Cl)C(c2ccc(Cl)cc2)C1)c1ccccc1Cl` (stereo not drawn) [Example 23, 2-Chloro-N-[5-(4-chloro-phenyl)-1-(2,4-dichloro-phenyl)-4,5-dihydro-1H-pyrazol-3-ylmethyl]-benzenesulfonamide], IC50 183 nM. Against it:
- N#Cc1cccc(S(=O)(=O)NCC2=NN(c3ccc(Cl)cc3Cl)C(c3ccc(Cl)cc3)C2)c1 (stereo not drawn) [Example 10, N-((5-(4-chlorophenyl)-1-(2,4-dichlorophenyl)-4,5-dihydro-1H-pyrazol-3-yl)methyl)-3-cyanobenzenesulfonamid] — 2.6-fold lower, 70 nM
- Cc1ccc(F)cc1S(=O)(=O)NCC1=NN(c2ccc(Cl)cc2Cl)C(c2ccc(Cl)cc2)C1 (stereo not drawn) [Example 38, N-[5-(4-Chloro-phenyl)-1-(2,4-dichloro-phenyl)-4,5-dihydro-1H-pyrazol-3-ylmethyl]-5-fluoro-2-methyl-benzenesulfonamide] — 42-fold lower, 4.4 nM
- Cc1ccc(F)cc1S(=O)(=O)NCC1=NN(c2ccc(Cl)cc2Cl)[C@@H](c2ccc(Cl)cc2)[C@H]1C [Example 74, (4R,5R)-N-[5-(4-Chloro-phenyl)-1-(2,4-dichloro-phenyl)-4-methyl-4,5-dihydro-1H-pyrazol-3-ylmethyl]-5-fluoro-2-methyl-benzenesulfonamide] — 17-fold lower, 11 nM
- Cc1ccc(C)c(S(=O)(=O)NCC2=NN(c3ccc(Cl)cc3Cl)C(c3ccc(Br)cc3)C2)c1 (stereo not drawn) [Example 280, N-[5-(4-Bromo-phenyl)-1-(2,4-dichloro-phenyl)-4,5-dihydro-1H-pyrazol-3-ylmethyl]-2,5-dimethyl-benzenesulfonamide] — 4.4-fold lower, 42 nM
- Cc1ccc([N+](=O)[O-])cc1S(=O)(=O)NCC1=NN(c2ccc(Cl)cc2Cl)C(c2ccc(Cl)cc2)C1 (stereo not drawn) [Example 142, N-[5-(4-Chloro-phenyl)-1-(2,4-dichloro-phenyl)-4,5-dihydro-1H-pyrazol-3-ylmethyl]-2-methyl-5-nitro-benzenesulfonamide] — 33-fold lower, 5.5 nM
- CCOc1ccc(C2CC(CNS(=O)(=O)c3cc(C)c(Cl)cc3C)=NN2c2ccc(Cl)cc2Cl)cc1 (stereo not drawn) [Example 247, 4-Chloro-N-[1-(2,4-dichloro-phenyl)-5-(4-ethoxy-phenyl)-4,5-dihydro-1H-pyrazol-3-ylmethyl]-2,5-dimethyl-benzenesulfonamide] — 2.8-fold lower, 65.5 nM
- O=S(=O)(NCC1=NN(c2ccc(Cl)cc2Cl)C(c2ccc(Cl)cc2)C1)c1cccnc1 (stereo not drawn) [Example 53, Pyridine-3-sulfonic acid [5-(4-chloro-phenyl)-1-(2,4-dichloro-phenyl)-4,5-dihydro-1H-pyrazol-3-ylmethyl]-amide hydrochloride] — 2.1-fold lower, 88.2 nM
- Cc1ccc(F)cc1S(=O)(=O)NCC1=NN(c2ccc(Cl)cc2Cl)[C@@H](c2ccc(Cl)cc2)C1 [Example 63, (R)-N-[5-(4-Chloro-phenyl)-1-(2,4-dichloro-phenyl)-4,5-dihydro-1H-pyrazol-3-ylmethyl]-5-fluoro-2-methyl-benzenesulfonamide] — 3.6-fold lower, 50.4 nM
- O=S(=O)(NCC1=NN(c2ccc(Cl)cc2Cl)C(c2ccc(Cl)cc2)C1)c1ccccc1Br (stereo not drawn) [Example 136, 2-Bromo-N-[5-(4-chloro-phenyl)-1-(2,4-dichloro-phenyl)-4,5-dihydro-1H-pyrazol-3-ylmethyl]-benzenesulfonamide] — 4.6-fold lower, 40 nM
- COc1ccc(C2CC(CNS(=O)(=O)c3cc(Cl)ccc3F)=NN2c2ccc(Cl)cc2Cl)cc1 (stereo not drawn) [Example 94, 5-Chloro-N-[1-(2,4-dichloro-phenyl)-5-(4-methoxy-phenyl)-4,5-dihydro-1-pyrazol-3-ylmethyl]-2-fluoro-benzenesulfonamide] — 2.5-fold lower, 74 nM
- Cc1ccc(F)cc1S(=O)(=O)NCC1=NN(c2ccc(Cl)cc2Cl)C(c2ccc(Br)cc2)C1 (stereo not drawn) [Example 277, N-[5-(4-Bromo-phenyl)-1-(2,4-dichloro-phenyl)-4,5-dihydro-1H-pyrazol-3-ylmethyl]-5-fluoro-2-methyl-benzenesulfonamide] — 4.3-fold lower, 43 nM
- CCOc1ccc(C2CC(CNS(=O)(=O)c3c(C)cc(C)cc3C)=NN2c2ccc(Cl)cc2Cl)cc1 (stereo not drawn) [Example 272, N-[1-(2,4-Dichloro-phenyl)-5-(4-ethoxy-phenyl)-4,5-dihydro-1H-pyrazol-3-ylmethyl]-2,4,6-trimethyl-benzenesulfonamide] — 14-fold lower, 13.4 nM
- CCOc1ccc(C2CC(CNS(=O)(=O)c3cccc(Cl)c3F)=NN2c2ccc(Cl)cc2Cl)cc1 (stereo not drawn) [Example 250, 3-Chloro-N-[1-(2,4-dichloro-phenyl)-5-(4-ethoxy-phenyl)-4,5-dihydro-1H-pyrazol-3-ylmethyl]-2-fluoro-benzenesulfonamide] — 4.6-fold lower, 39.7 nM

Point of comparison: `CCOc1ccc(C2CC(CNS(=O)(=O)c3cccc(Cl)c3F)=NN2c2ccc(Cl)cc2Cl)cc1` (stereo not drawn) [Example 250, 3-Chloro-N-[1-(2,4-dichloro-phenyl)-5-(4-ethoxy-phenyl)-4,5-dihydro-1H-pyrazol-3-ylmethyl]-2-fluoro-benzenesulfonamide], Ki 16.6 nM. Against it:
- Cc1ccc(F)cc1S(=O)(=O)NCC1=NN(c2ccc(Cl)cc2Cl)[C@@H](c2ccc(Cl)cc2)[C@H]1C [Example 74, (4R,5R)-N-[5-(4-Chloro-phenyl)-1-(2,4-dichloro-phenyl)-4-methyl-4,5-dihydro-1H-pyrazol-3-ylmethyl]-5-fluoro-2-methyl-benzenesulfonamide] — 3.3-fold lower, 5.1 nM
- Cc1ccc(C)c(S(=O)(=O)NCC2=NN(c3ccc(Cl)cc3Cl)C(c3ccc(Br)cc3)C2)c1 (stereo not drawn) [Example 280, N-[5-(4-Bromo-phenyl)-1-(2,4-dichloro-phenyl)-4,5-dihydro-1H-pyrazol-3-ylmethyl]-2,5-dimethyl-benzenesulfonamide] — within 1.5-fold, 17.5 nM
- Cc1ccc([N+](=O)[O-])cc1S(=O)(=O)NCC1=NN(c2ccc(Cl)cc2Cl)C(c2ccc(Cl)cc2)C1 (stereo not drawn) [Example 142, N-[5-(4-Chloro-phenyl)-1-(2,4-dichloro-phenyl)-4,5-dihydro-1H-pyrazol-3-ylmethyl]-2-methyl-5-nitro-benzenesulfonamide] — 7.2-fold lower, 2.3 nM
- CCOc1ccc(C2CC(CNS(=O)(=O)c3cc(C)c(Cl)cc3C)=NN2c2ccc(Cl)cc2Cl)cc1 (stereo not drawn) [Example 247, 4-Chloro-N-[1-(2,4-dichloro-phenyl)-5-(4-ethoxy-phenyl)-4,5-dihydro-1H-pyrazol-3-ylmethyl]-2,5-dimethyl-benzenesulfonamide] — 1.7-fold higher, 27.7 nM
- O=S(=O)(NCC1=NN(c2ccc(Cl)cc2Cl)C(c2ccc(Cl)cc2)C1)c1cccnc1 (stereo not drawn) [Example 53, Pyridine-3-sulfonic acid [5-(4-chloro-phenyl)-1-(2,4-dichloro-phenyl)-4,5-dihydro-1H-pyrazol-3-ylmethyl]-amide hydrochloride] — 2.6-fold higher, 43.2 nM
- Cc1ccc(F)cc1S(=O)(=O)NCC1=NN(c2ccc(Cl)cc2Cl)[C@@H](c2ccc(Cl)cc2)C1 [Example 63, (R)-N-[5-(4-Chloro-phenyl)-1-(2,4-dichloro-phenyl)-4,5-dihydro-1H-pyrazol-3-ylmethyl]-5-fluoro-2-methyl-benzenesulfonamide] — within 1.5-fold, 21 nM
- O=S(=O)(NCC1=NN(c2ccc(Cl)cc2Cl)C(c2ccc(Cl)cc2)C1)c1ccccc1Br (stereo not drawn) [Example 136, 2-Bromo-N-[5-(4-chloro-phenyl)-1-(2,4-dichloro-phenyl)-4,5-dihydro-1H-pyrazol-3-ylmethyl]-benzenesulfonamide] — within 1.5-fold, 16.9 nM
- COc1ccc(C2CC(CNS(=O)(=O)c3cc(Cl)ccc3F)=NN2c2ccc(Cl)cc2Cl)cc1 (stereo not drawn) [Example 94, 5-Chloro-N-[1-(2,4-dichloro-phenyl)-5-(4-methoxy-phenyl)-4,5-dihydro-1-pyrazol-3-ylmethyl]-2-fluoro-benzenesulfonamide] — 2-fold higher, 33 nM
- Cc1ccc(F)cc1S(=O)(=O)NCC1=NN(c2ccc(Cl)cc2Cl)C(c2ccc(Br)cc2)C1 (stereo not drawn) [Example 277, N-[5-(4-Bromo-phenyl)-1-(2,4-dichloro-phenyl)-4,5-dihydro-1H-pyrazol-3-ylmethyl]-5-fluoro-2-methyl-benzenesulfonamide] — within 1.5-fold, 18.2 nM
- CCOc1ccc(C2CC(CNS(=O)(=O)c3c(C)cc(C)cc3C)=NN2c2ccc(Cl)cc2Cl)cc1 (stereo not drawn) [Example 272, N-[1-(2,4-Dichloro-phenyl)-5-(4-ethoxy-phenyl)-4,5-dihydro-1H-pyrazol-3-ylmethyl]-2,4,6-trimethyl-benzenesulfonamide] — 2.9-fold lower, 5.7 nM
